Source: patent US8815872B2, “Macrocyclics pyrimidines as aurora kinase inhibitors” (Merck Patent GmbH, priority 2008, dated 2014)
Several values for one entry are separate records, joined by “and”; a condition that tells them apart may be missing. Equal entries are not always repeated. Where two headings read alike, the source gives them in different places.

Experiments:
Aurora A = target: T1, Aurora A (Homo sapiens, UniProt O14965); assay: Aurora A enzyme assay (Caliper LC3000 mobility shift); format: biochemical
T1 construct: N-terminal GST fusion with full length Aurora A (1-403 amino acids); purchased Carna Biosciences 05-101
T1 sequence (O14965 1-403): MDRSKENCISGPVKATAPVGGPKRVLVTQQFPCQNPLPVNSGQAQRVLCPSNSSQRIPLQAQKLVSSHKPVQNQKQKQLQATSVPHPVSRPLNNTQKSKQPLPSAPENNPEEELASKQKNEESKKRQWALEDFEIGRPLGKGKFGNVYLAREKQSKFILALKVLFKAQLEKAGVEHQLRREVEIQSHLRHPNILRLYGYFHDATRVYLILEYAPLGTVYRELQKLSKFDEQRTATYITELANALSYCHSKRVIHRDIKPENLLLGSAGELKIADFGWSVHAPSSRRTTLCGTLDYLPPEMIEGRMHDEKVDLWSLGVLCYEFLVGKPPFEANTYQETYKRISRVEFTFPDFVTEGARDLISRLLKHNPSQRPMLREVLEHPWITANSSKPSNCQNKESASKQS
Description: (§1) The Aurora and other kinase assays described here were performed on two Caliper Life Sciences systems, the LC3000 and the Desktop Profiler. These provide data on enzyme activity via measurement of the relative amounts of phosphorylated or unphosphorylated fluorescently labelled substrate peptide at the end of an enzymatic reaction. These different states of peptide are resolved by applying a potential difference across the sample. The presence of a charged phosphate group on the product (as opposed to the substrate) causes a different peptide mobility between the two peptides. This is visualized by excitation of a fluorescent label on the substrate and product peptides and represented as peaks within the analysis software.
For example, in order to measure inhibitor activity of Aurora A inhibitors in the Caliper Life Sciences LC3000, a TTP Mosquito liquid handling instrument was used to place […] of an appropriate concentration of inhibitor in 100% DMSO (for a dose response curve calculation) into each well of a 384-well plate. To this reaction components were added to a final volume of 25 μl: • 0.067 ng/μl GST-Aurora A (Carna Biosciences 05-101. N-terminal GST fusion with full length Aurora A (1-403 amino acids), accession number NP_940835.1). • 15 μM ATP (Fluka, 02055) • 1 mM DTT (Sigma, D0632) • 1 mM MgC12 (Sigma, M1028) • 1 μM substrate peptide (sequence FITC-LRRASLG-(CONH2), synthesized by Tufts Peptide Synthesis service. • 100 mM HEPES pH 7.5 (Calbiochem, 391338) • 0.015% Brij-35 (Sigma, B4184)
The reaction was incubated for 90 min at 25° C., and then stopped by the addition of 70 μl of Stop buffer (100 mM HEPES pH 7.5, 0.015% Brij-35, 10 mM EDTA (Sigma, E7889)).
The plate was read on a Caliper LC 3000 in an Off-Chip mobility shift assay format, using the following parameters for a 12-sipper chip: screening pressure −1.8 psi, upstream voltage −2700, downstream voltage −1000. These conditions cause unphosphorylated substrate and phosphorylated product peptide to resolve as separate peaks allowing direct measurement of percentage of conversion of substrate to product. The percent conversion was plotted against concentration of inhibitor to produce a sigmoidal dose response curve, from which an IC50 was calculated using XLFit for Microsoft Excel.

Aurora B = Aurora B (Homo sapiens, UniProt Q96GD4); assay: Aurora B enzyme assay (Caliper); format: biochemical
Description: as §1

MiaPaca2 = assay: Cellular activity MiaPaca2; format: cell-based
Description: (§2) The susceptibility of a particular cell to treatment with the compounds according to the invention was determined by in vitro tests. Typically, a culture of the cell was combined with a compound according to the invention at various concentrations for a period of time that was sufficient to allow the active agents to induce cell death or to inhibit migration, usually between about one hour and one week. In vitro testing was carried out using cultivated cells from a biopsy sample. The viable cells remaining after the treatment then were counted.

A549 = assay: Cellular activity A549; format: cell-based
Description: as §2

[1] = target: kinases (not incl. Aurora); assay: Kinase inhibition profile (not incl. Aurora); format: biochemical; conditions: at 1 μM; hit means >79% inhibition
Description: as §1
The Desktop Profiler utilizes the same principal as the LC 3000 for calculating percentage conversion of a substrate to product. Caliper Life Sciences provided proprietary flash frozen pre-made 384 well plates containing selected kinases. Each column in the 384 well plate contained a particular selected kinase. A second plate, the ‘substrate plate’ contained a mix of fluorescently labeled peptide substrate and ATP. These were arranged in columns so that transfer for substrate plate to enzyme plate provided the correct enzyme with the correct substrate/ATP concentration.
Compounds were added to a thawed enzyme plate in the desired format, in single concentrations. Reactions were initiated by transfer of the ubstrate/ATP mix from the substrate plate. The enzyme plate was incubated for 90 mins at 25 °C. The reaction was stopped by addition of […] of Stop Buffer (100 mM HEPES pH 7.5, 0.015% Brij-35, 10 mM EDTA (Sigma, E7889)).
Plates were read in a manner identical to that of the LC3000, and the ratio between substrate and product peaks provided the activity of the enzyme in that well. This was best represented by a plate heat map which colors each well by percent inhibition as compared to positive and negative controls (no inhibitors and no ATP respectively).

Chain of Aurora B (Q96GD4 whole entry): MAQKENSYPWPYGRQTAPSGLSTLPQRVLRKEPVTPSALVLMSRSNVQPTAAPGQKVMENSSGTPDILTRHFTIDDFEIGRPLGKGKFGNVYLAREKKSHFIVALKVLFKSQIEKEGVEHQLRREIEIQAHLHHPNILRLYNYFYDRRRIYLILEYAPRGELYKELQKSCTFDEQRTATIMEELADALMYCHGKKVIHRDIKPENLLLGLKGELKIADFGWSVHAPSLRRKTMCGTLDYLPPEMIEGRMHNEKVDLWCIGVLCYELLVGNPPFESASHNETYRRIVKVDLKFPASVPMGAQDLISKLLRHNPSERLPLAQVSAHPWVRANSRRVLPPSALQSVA

## CN1Cc2cccc(c2)Nc2ncc(F)c(n2)N[C@@H]2[C@@H]3C[C@@H](C[C@H]3C1)[C@@H]2C(N)=O
Aurora A
  IC50: 1000 to 6250 nM
Aurora B
  IC50: 1 to 100 nM
From CN(Cc1cccc(N)c1)C[C@@H]1C[C@@H]2C[C@H]1[C@@H](Nc1nc(Cl)ncc1F)[C@H]2C(N)=O, snar bond
  ring closure, yield of all isomers: 5.5%

## NC(=O)[C@H]1[C@@H]2CC3CNS(=O)(=O)c4cccc(c4)Nc4ncc(F)c(n4)N[C@@H]1[C@@H]3C2 (stereo partly shown)
From NC(=O)[C@H]1[C@@H]2CC(CNS(=O)(=O)c3cccc(N)c3)[C@@H](C2)[C@H]1Nc1nc(Cl)ncc1F, snar bond
  ring closure, yield of all isomers: 8.5%

## CN1CCN(c2cc3cc(c2)S(=O)(=O)NC[C@@H]2C[C@@H]4C[C@H]2[C@@H](Nc2nc(ncc2F)N3)[C@H]4C(N)=O)CC1
Aurora A
  IC50: 1 to 100 nM
From CN1CCN(c2cc(N)cc(S(=O)(=O)NC[C@@H]3C[C@@H]4C[C@H]3[C@@H](Nc3nc(Cl)ncc3F)[C@H]4C(N)=O)c2)CC1, snar bond, HCl
  ring closure, yield of all isomers: 6.8%

## NC(=O)[C@H]1[C@H]2C[C@H]3[C@H]1Nc1nc(ncc1F)Nc1cccc(c1)CC(=O)N[C@@H]3C2
Aurora A
  IC50: 1 to 100 nM
Aurora B
  IC50: 1 to 100 nM
From NC(=O)[C@H]1[C@H]2C[C@@H]([C@H]1Nc1nc(Cl)ncc1F)[C@H](NC(=O)Cc1cccc(N)c1)C2, snar bond
  ring closure, yield of all isomers: 8.1%

## NC(=O)[C@H]1[C@H]2C[C@H]3[C@H]1Nc1nc(ncc1F)Nc1cccc(c1)OCCS[C@@H]3C2 [drawing 219]
Aurora A
  IC50: 1 to 100 nM
MiaPaca2; Homo sapiens, MIA PaCa-2
  IC50: 1000 to 6250 nM
Aurora B
  IC50: 1 to 100 nM
A549; Homo sapiens
  IC50: 1000 to 6250 nM
[1]
  Kinase Inhibition Profile (not incl. Aurora) # kinases hit/# kinases tested: 11/36 at 1 μM

## NC(=O)[C@H]1[C@@H]2CC3CNC(=O)c4cccc(c4)Nc4ncc(F)c(n4)N[C@@H]1[C@@H]3C2 (stereo partly shown)
From CC(C)(C)OC(=O)Nc1cccc(C(=O)NCC2C[C@@H]3C[C@H]2[C@@H](Nc2nc(Cl)ncc2F)[C@H]3C(N)=O)c1, snar bond, TFA, 2 steps
  ring closure, yield of all isomers: 1.8%

## NC(=O)[C@H]1[C@H]2C[C@H]3[C@H]1Nc1nc(ncc1F)Nc1cccc(c1)C(=O)CS[C@@H]3C2 [drawing 214]
Aurora A
  IC50: 1 to 100 nM
MiaPaca2; Homo sapiens, MIA PaCa-2
  IC50: 1000 to 6250 nM
Aurora B
  IC50: 1 to 100 nM
A549; Homo sapiens
  IC50: 1000 to 6250 nM
[1]
  Kinase Inhibition Profile (not incl. Aurora) # kinases hit/# kinases tested: 2/36 at 1 μM

## NC(=O)[C@H]1[C@@H]2C[C@H]3CNCC(O)c4cccc(c4)Nc4ncc(F)c(n4)N[C@@H]1[C@@H]3C2 (stereo partly shown)
Aurora A
  IC50: 101 to 1000 nM
From NC(=O)[C@H]1[C@@H]2C[C@@H](CNCC(O)c3cccc(N)c3)[C@@H](C2)[C@H]1Nc1nc(Cl)ncc1F, snar bond, HCl
  ring closure, yield of all isomers: 43.9%

## Fc1cnc2nc1NC1CCCC(C1)OCC=CCOc1cccc(c1)N2 (stereo not shown)
From C=CCOc1cccc(Nc2ncc(F)c(NC3CCCC(OCC=C)C3)n2)c1, rcm bond, Grubbs 2nd generation, dichloromethane, 2.0 mM, 40.0 °C, 16.0 h
  ring closure, yield of all isomers: 1.5%

## CC(=O)N1Cc2cccc(c2)Nc2ncc(F)c(n2)N[C@@H]2[C@@H]3C[C@@H](C[C@H]3C1)[C@@H]2C(N)=O
From CC(=O)N(Cc1cccc(N)c1)C[C@@H]1C[C@@H]2C[C@H]1[C@@H](Nc1nc(Cl)ncc1F)[C@H]2C(N)=O, snar bond
  ring closure, yield of all isomers: 45.4%

## NC(=O)[C@H]1[C@@H]2CC3CNC(=O)c4cccc(c4)Nc4ncc(F)c(n4)N[C@@H]1[C@@H]3C2 (stereo partly shown) [drawing 254]
Aurora A
  IC50: 1 to 100 nM
MiaPaca2; Homo sapiens, MIA PaCa-2
  IC50: 1000 to 6250 nM
Aurora B
  IC50: 1 to 100 nM
A549; Homo sapiens
  IC50: 1000 to 6250 nM
[1]
  Kinase Inhibition Profile (not incl. Aurora) # kinases hit/# kinases tested: 1/76 at 1 μM

## NC(=O)[C@H]1[C@@H]2C[C@H]3CNCC(=O)Nc4cccc(c4)Nc4ncc(F)c(n4)N[C@@H]1[C@@H]3C2
Aurora A
  IC50: 101 to 1000 nM
Aurora B
  IC50: 101 to 1000 nM
From NC(=O)[C@H]1[C@@H]2C[C@@H](CNCC(=O)Nc3cccc(N)c3)[C@@H](C2)[C@H]1Nc1nc(Cl)ncc1F, snar bond
  ring closure, yield of all isomers: 44%

## NC(=O)[C@H]1[C@@H]2CC3CNC(=O)c4cccc(c4)Nc4ncc(F)c(n4)N[C@@H]1[C@@H]3C2 (stereo partly shown) [drawing 259]
Aurora A
  IC50: 1 to 100 nM
MiaPaca2; MiaPaca2
  IC50: 1000 to 6250 nM
Aurora B
  IC50: 1 to 100 nM
A549
  IC50: 1000 to 6250 nM
[1]
  Kinase Inhibition Profile (not incl. Aurora) # kinases hit/# kinases tested: 1/76 at 1 μM

## NC(=O)[C@H]1[C@@H]2C[C@H]3CNC(=O)Cn4cc(cn4)Nc4ncc(F)c(n4)N[C@@H]1[C@@H]3C2
Aurora A
  IC50: 1 to 100 nM
MiaPaca2; Homo sapiens, MIA PaCa-2
  IC50: 1000 to 6250 nM
Aurora B
  IC50: 1 to 100 nM
A549; Homo sapiens
  IC50: > 6250 nM
[1]
  Kinase Inhibition Profile (not incl. Aurora) # kinases hit/# kinases tested: 2/73 at 1 μM

## CN1CCN(c2ccc3cc2NC(=O)CS[C@@H]2C[C@@H]4C[C@H]2[C@@H](Nc2nc(ncc2F)N3)[C@H]4C(N)=O)CC1 [drawing 222]
Aurora A
  IC50: 1 to 100 nM
MiaPaca2; Homo sapiens, MIA PaCa-2
  IC50: 101 to 1000 nM
Aurora B
  IC50: 1 to 100 nM
A549; Homo sapiens
  IC50: 101 to 1000 nM
[1]
  Kinase Inhibition Profile (not incl. Aurora) # kinases hit/# kinases tested: 13/36 at 1 μM

## Fc1cnc2nc1NC1CCC(CC1)OCC=CCOc1cccc(c1)N2
From C=CCOc1cccc(Nc2ncc(F)c(NC3CCC(OCC=C)CC3)n2)c1, rcm bond, Grubbs 2nd generation, then Hoveyda-Grubbs 2nd generation, dichloromethane, 2.0 mM, 40.0 °C, 76.0 h
  ring closure, yield of all isomers: 2.7% and 5.9%

## CN1CCN(c2ccc3cc2[C@@H](O)CS[C@@H]2C[C@@H]4C[C@H]2[C@@H](Nc2nc(ncc2F)N3)[C@H]4C(N)=O)CC1
Aurora A
  IC50: 1 to 100 nM
MiaPaca2; Homo sapiens, MIA PaCa-2
  IC50: 1 to 100 nM
Aurora B
  IC50: 1 to 100 nM
A549; Homo sapiens
  IC50: 1 to 100 nM
[1]
  Kinase Inhibition Profile (not incl. Aurora) # kinases hit/# kinases tested: 121/267 at 1 μM

## NC(=O)[C@H]1[C@@H]2C[C@H]3CNC(=O)Cc4cccc(c4)Nc4ncc(F)c(n4)N[C@@H]1[C@@H]3C2
From NC(=O)[C@H]1[C@@H]2C[C@@H](CNC(=O)Cc3cccc(N)c3)[C@@H](C2)[C@H]1Nc1nc(Cl)ncc1F, snar bond, 2 steps
  ring closure, yield of all isomers: 7%

## CN1CCN(c2ccc3cc2CC(=O)NC[C@@H]2C[C@@H]4C[C@H]2[C@@H](Nc2nc(ncc2F)N3)[C@H]4C(N)=O)CC1
Aurora A
  IC50: 101 to 1000 nM
MiaPaca2; Homo sapiens, MIA PaCa-2
  IC50: 1000 to 6250 nM
Aurora B
  IC50: 1000 to 6250 nM
A549; Homo sapiens
  IC50: > 6250 nM
[1]
  Kinase Inhibition Profile (not incl. Aurora) # kinases hit/# kinases tested: 0/73 at 1 μM

## NC(=O)[C@H]1[C@H]2C[C@H]3[C@H]1Nc1nc(ncc1F)Nc1cccc(c1)NC(=O)CS[C@@H]3C2 [drawing 221]
Aurora A
  IC50: 1 to 100 nM
MiaPaca2; Homo sapiens, MIA PaCa-2
  IC50: 101 to 1000 nM
Aurora B
  IC50: 1 to 100 nM
A549; Homo sapiens
  IC50: 101 to 1000 nM
[1]
  Kinase Inhibition Profile (not incl. Aurora) # kinases hit/# kinases tested: 12/36 at 1
